Data taken from patent publication US9737517B2, “Pharmaceutical use of hexahydro-dibenzo[a,g]quinolizine compounds” (SHANGHAI INSTITUTE OF MATERIA MEDICA, CHINESE ACADEMY OF …, priority 2013, dated 2017).
Where two headings read alike, the source gives them in different places.

Legend:
[1] = In vitro metabolism in human liver microsomes; assay type: in vitro ADME
Method: (§1) The total volume of each incubation system was 200 μL, and the medium was 100 mM phosphate buffer solution (PBS, pH7.4) comprising a final concentration of 3 μM DC037009 and 2 mM NADPH. A37° C. water bath was used for incubation. After 3 minutes of pre-incubation, various liver microsomes protein were added into the buffer-substrate-cofactors mixture to start reaction. The concentration of liver microsomal protein of various species was 1.0 mg/mL. After reacting 60 min, the reaction was terminated with isovolumetric ice-cold acetonitrile. The total volume of blank was 200 μL, and the medium was 100 mM phosphate buffer solution (PBS, pH 7.4), comprising a final concentration of 3 μM DC037009 and heat inactivated microsomal proteins. All incubation samples were double.
(§2) A 150 μL sample from each of double incubation samples was mixed. A 300 μL of acetonitrile was added, mixed by vortexing for 1 min, and centrifuged 5 min (11000 rpm). The supernatant was placed in a 10 mL tube, and dried in 40° C. with nitrogen stream. The residue was dissolved with 100 μL methanol/water (1:9, v/v). A 10 μL sample was taken for UPLC/Q-TOF MS analysis.

[2] = In vitro metabolism in mouse liver microsomes; assay type: in vitro ADME, mice
Method: as §1, §2

pKa determination = assay type: physicochemical
[3] = In vitro metabolism in rat liver microsomes; assay type: in vitro ADME
Method: as §1, §2

SD rats = assay: Repetitive dose toxicity experiment on SD rats for 14 days; assay type: in vivo; conditions: oral, 100 and 200 mg/kg for 14 days
[4] = Stability of the compound on heating; assay type: physicochemical; conditions: heated at 80° C. for 24 hours
Method: Compound DC037009 was heated at 80° C. for 24 hours, and the compound purity only varied 0.5%.

[5] = 3 μM DC037009, 1.0 mg/mL microsomal protein, NADPH, 60 min, UPLC/Q-TOF MS

SMILES: COc1cc2c(cc1OC)CN1CCc3cc4c(cc3[C@@H]1C2)OCO4 [DC037009, S-(−)-2,3-methylenedioxy-10,11-dimethoxy-5,8,13,13a-tetrahydro-6H-dibenzo[a,g]quinolizine]
- Mass area, Human [1, 5]: 416.8
- kinds of metabolites detected in human liver microsome ([1]; 60 min incubation): Four
- metabolic stability in human liver microsome ([1]; 60 min incubation): relatively higher
- Mass area, mice [2, 5]: 6.3
- kinds of metabolites detected in mouse liver microsome ([2]; 60 min incubation): eight
- metabolic stability in mouse liver microsome ([2]; 60 min incubation): unstable
- pKa (pKa determination; methanol, solvent CH3OH, read-out: pKa (CH3OH)): 6.81
- pKa (pKa determination; water, solvent H2O, read-out: pKa (H2O)): 7.28
- Mass area, rat [3, 5]: 115.4
- kinds of metabolites detected in rat liver microsome ([3]; 60 min incubation): eight
- changes of blood and coagulation indicators and serum biochemical indicators (SD rats): did not show any toxicological significance
- death (SD rats): no death rat was found
- gross anatomy (SD rats): no pathological changes related to administrated drug
- variation of compound purity [4]: 0.5%
